# Source: patent publication US20190358247A1 (The Medical College of Wisconsin, Inc., priority 2016, published 2019)
# Several values for one entry are separate records, joined by “and”; a condition that tells them apart may be missing. Equal entries are not always repeated. Where two headings read alike, the source gives them in different places.
# What was measured:
# [1] = test system: FC1242-luc; experiment: Orthotopic syngeneic FC1242-luc engraftment model, tumor growth; type: in vivo, C57BL/6 mice; conditions: for in vivo tumor growth compared with Met: 1 mg/kg daily i.p.
# Source text: In vivo studies and bioluminescence imaging.
# [2] = mouse
# Procedure: In an initial proof-of-concept experiment, syngeneic KPC cells expressing Firefly luciferase (FC1242-luc) were orthotopically implanted to the pancreas of C57BL/6 mice and tumor growth monitored using bioluminescence imaging (FIG. 15F). Mice orthotopically autografted with FC1242-luc cells were treated daily with 1 mg/kg or 150 mg/kg Met, or 1 mg/kg Mito-Met. […] Serum from these animals was collected, and hepatic and kidney toxicity tested using standard AST, ALT, AP, and BUN assays, respectively.
# [3] = test system: MiaPaCa-2 cells; experiment: Three-dimensional spheroid growth in Matrigel; type: cell-based, human
# Procedure: Three-dimensional spheroid cell cultures of PDAC. MiaPaCa-2 cells (5,000) were seeded in 96-well plates containing Matrigel (Corning), used as scaffold. This typical 3D-cell culture system allows spheroids to form within the matrix. […] At days 3, 7, and 14 the wells were observed by bright-field microscopy and images acquired on a Nikon Eclipse Ti inverted microscope (Nikon instrument Inc., NY, USA). Spheroid-forming cells were counted using the Nikon NIS Elements imaging software (Nikon). Data are expressed as mean and SD of number of spheroids.
# We tested the antiproliferative effects of Mito-Met and Met in the multicellular spheroid model (FIG. 11A). MiaPaCa-2 cells were cultured for 14 days in Matrigel and treated with Mito-Met10 and Met.
# [4] = target: T1, mitochondrial complex I (Homo sapiens, UniProt O75251+O75306+P03886); experiment: Complex I oxygen consumption (pyruvate/malate) in permeabilized cells, Seahorse XF96; type: cell-based
# Procedure: (§1) Respiratory enzyme activity in intact and permeabilized cells. The mitochondrial function in intact and permeabilized pancreatic cancer cells was measured using a Seahorse XF96 Extracellular Flux Analyzer (Seahorse Bioscience, North Billerica, Mass., USA). Unless specified otherwise, assays in intact cells were performed as previously described. Measurement of mitochondrial respiratory complexes in permeabilized cells was performed according to the manufacturer's instructions (Seahorse Bioscience). Briefly, intact cells were permeabilized using 1 nM Plasma Membrane Permeabilizer (PMP, Seahorse Bioscience) immediately before oxygen consumption rate (OCR) measurement by XF96. The oxygen consumption derived from mitochondrial complex I or complex II activity was measured by providing different substrates to mitochondria, e.g., pyruvate/malate for complex I and succinate for complex II activity. Rotenone, malonate and antimycin A were used as specific inhibitors of mitochondrial complex I, II and III activities, respectively.
# (§2) The oxygen consumption rate was measured using the permeabilized MiaPaCa-2 cells in MAS buffer supplemented with pyruvate. The use of permeabilized cells avoids differences in cellular uptake of compounds. […] We tested the effect of pretreating cells with Mito-Met10 or Met using the permeabilized model. MiaPaCa-2 cells were treated with Met and Mito-Met10 for 24 h and the oxygen consumption studies were performed in these cells after permeabilization.
# Target sequence in this assay (O75306 34-463): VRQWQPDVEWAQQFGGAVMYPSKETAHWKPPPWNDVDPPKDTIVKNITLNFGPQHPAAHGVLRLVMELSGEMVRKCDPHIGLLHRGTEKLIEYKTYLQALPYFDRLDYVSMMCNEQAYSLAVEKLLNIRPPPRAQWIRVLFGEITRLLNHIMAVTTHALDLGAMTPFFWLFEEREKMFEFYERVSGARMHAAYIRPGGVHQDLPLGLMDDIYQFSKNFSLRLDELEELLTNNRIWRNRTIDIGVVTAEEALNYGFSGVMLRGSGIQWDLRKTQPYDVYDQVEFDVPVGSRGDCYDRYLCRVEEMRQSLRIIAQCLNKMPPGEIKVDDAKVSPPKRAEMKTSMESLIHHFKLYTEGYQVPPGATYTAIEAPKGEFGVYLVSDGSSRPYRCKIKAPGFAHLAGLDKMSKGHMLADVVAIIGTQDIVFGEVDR
# Target sequence in this assay (O75251 39-213): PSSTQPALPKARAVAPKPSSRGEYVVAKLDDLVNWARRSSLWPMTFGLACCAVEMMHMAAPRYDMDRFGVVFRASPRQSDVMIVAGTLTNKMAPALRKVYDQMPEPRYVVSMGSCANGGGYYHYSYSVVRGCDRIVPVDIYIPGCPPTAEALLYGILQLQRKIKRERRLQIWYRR
# Target sequence in this assay (P03886 whole entry): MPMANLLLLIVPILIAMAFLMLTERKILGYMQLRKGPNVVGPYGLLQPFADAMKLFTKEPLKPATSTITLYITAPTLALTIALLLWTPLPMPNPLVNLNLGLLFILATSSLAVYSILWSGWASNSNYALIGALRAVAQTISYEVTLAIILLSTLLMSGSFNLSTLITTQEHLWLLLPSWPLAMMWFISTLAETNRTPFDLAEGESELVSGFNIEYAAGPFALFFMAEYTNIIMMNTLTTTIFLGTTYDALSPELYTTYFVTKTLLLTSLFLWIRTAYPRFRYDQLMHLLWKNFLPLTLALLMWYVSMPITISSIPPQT
# Target sequence in this assay (O75489 37-264, further chain): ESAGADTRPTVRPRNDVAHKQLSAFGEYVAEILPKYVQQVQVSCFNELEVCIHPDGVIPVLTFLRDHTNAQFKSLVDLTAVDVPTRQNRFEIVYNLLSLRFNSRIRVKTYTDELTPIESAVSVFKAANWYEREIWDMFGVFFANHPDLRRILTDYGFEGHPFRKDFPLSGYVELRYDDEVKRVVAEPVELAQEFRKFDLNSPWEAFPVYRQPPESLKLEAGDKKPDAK
# Target sequence in this assay (P03897 whole entry, further chain): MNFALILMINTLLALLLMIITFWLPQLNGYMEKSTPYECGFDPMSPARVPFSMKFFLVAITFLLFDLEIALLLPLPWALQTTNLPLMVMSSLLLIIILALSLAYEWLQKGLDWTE
# [5] = test system: MiaPaCa-2 cells; experiment: Sytox Green cytotoxicity assay; type: cell-based; conditions: 100 μM, 24 h
# Procedure: Cytotoxicity assay. To determine the cytotoxicity of Mito-Met analogs and other TPP^+-conjugated to a long chain aliphatic hydrocarbon, we used the Sytox assay as described previously. MiaPaCa-2 cells were treated for 24 h, and dead cells were monitored in the presence of 200 nM Sytox Green (Invitrogen). The Sytox method labels the nuclei of dead cells yielding green fluorescence. Fluorescence intensities from the dead cells in 96-well plate were acquired in real time every 15 min after 4 h using a plate reader (BMG Labtech, Inc.) equipped with an atmosphere controller set at 37° C. and 5% CO2:95% air, using a fluorescence detection with 485 nm (excitation) and 535 nm (emission). To measure the total cell number, all of the samples in each treatment group were permeabilized by adding Triton X 100 (0.065%) in the presence of Sytox Green for 3 h, and maximal fluorescence intensities were taken as 100%. Data are represented as a percentage of dead cells after normalization to total cell number for each group.
# Induction of cell death was monitored by Sytox Green staining, as shown previously. MiaPaCa-2 cells were treated with Mito-Met10 (100 μM), Mito-CP (100 μM), or Met (30 mM) and other controls for 24 h and cell death was measured in real time.
# [6] = target: T1, mitochondrial complex I; experiment: Complex I oxygen consumption (pyruvate/malate) in permeabilized cells, Seahorse XF96; type: cell-based; parameters: IC50, complex I oxygen consumption; other: permeabilized MiaPaCa-2, added acutely
# Procedure: as §1, §2
# Target sequence in this assay (P03886 whole entry): as the sequence (P03886 whole entry) above
# Target sequence in this assay (O75251 39-213): as the sequence (O75251 39-213) above
# Target sequence in this assay (P03897 whole entry, further chain): as the sequence (P03897 whole entry, further chain) above
# Target sequence in this assay (O75306 34-463): as the sequence (O75306 34-463) above
# Target sequence in this assay (O75489 37-264, further chain): as the sequence (O75489 37-264, further chain) above
# [7] = test system: AMPK; experiment: Immunoblot of phosphorylated AMPK Thr-172 relative to total AMPK, MiaPaCa-2 cells; type: cell-based, human
# Procedure: In this example, the inventors have shown that the mito-met compounds of the present invention cause an increased AMPK activation in cancer cells. In preliminary experiments (FIG. 4), human MiaPaCa2 and murine FC1199 PDAC cells treated 30 min with 1 μM mito-met (MM), 1 mM Met, or the oligomycin positive control were lysed, and proteins size-separated on SDS-PAGE, transferred to PVDF, and probed with an antibody to phosphorylated AMPK Thr-172.
# Immunoblotting. MiaPaCa-2 PDAC cells (1×10^6) were plated to 80% confluency in 60 mm dishes and then serum-starved for 5 hours. […] Cells were stimulated with oligomycin as a positive control. After stimulation, cells were washed twice in cold PBS and lysed using a modified RIPA buffer. Lysates were normalized for protein concentration, size separated using reducing SDS-PAGE, electro-transferred to PVDF membranes (Millipore) and then probed using primary and horseradish peroxidase-conjugated secondary antibodies. Antibodies against total or phosphorylated 5′ AMP-activated protein kinase (AMPK) were purchased from Cell Signaling Technology (Danvers, Mass.) and used at the manufacturer's recommended dilutions. Proteins were visualized by chemiluminescence with auto-exposure and quantified by densitometric analysis using the FluorChem HD2 from Cell Biosciences (Santa Clara, Calif.).
# AMPK activation in Mito-Met and Met-treated PDAC cells. […]
compound,measurement,setting,value
Br.N=C(N)NC(=N)NCCCCCCCCCC[P+](c1ccccc1)(c1ccccc1)c1ccccc1 [Mito-Met10],in vivo tumor growth compared with Met,[1],considerably more potent than Met
same,in vivo tumor growth compared with Met,[1]; listed as Mito-Met,considerably more effective than Met
same,therapeutic index relative to Met,"[1]; mouse, in vivo","~1,000 fold"
same,times more effective than Met in abrogating PDAC tumor growth,"[1]; mouse, in vivo",at least 100 times
same,toxicity in vivo (hepatic and kidney),[2],neither Met nor the mitochondria-targeted analog Mito-Met elicited toxicity
same,Kidney BUN,"[2]; in vivo, 1 mg/kg",27 ± 4 mg/dL
same,Liver ALT,"[2]; in vivo, 1 mg/kg",26 ± 10 IU/L
same,Liver AST,"[2]; in vivo, 1 mg/kg",89 ± 16 IU/L
same,"fold more effective than Met in inhibiting PDAC proliferation, 2D and 3D cell growth assays",[3],"1,000- to 10,000 fold"
same,PDAC spheroid growth,"[3]; 0.5 μM, 14 days",potently inhibited PPAC spheroid growth
same,concentration giving significant decrease in OCR (complex I inhibition),"[4]; 24 h treatment, then permeabilized",0.75 µM
same,fold more effective than Met in inhibiting complex I-mediated oxygen consumption,[4]; MiaPaCa-2,"2,000 fold"
same,IC50,"[4]; read-out: IC50, mitochondrial complex I-mediated oxygen consumption, MiaPaCa-2, 24 h pretreatment, then permeabilized",400 nM and ~430 nM
same,"cell death, Sytox Green staining",[5],no detectable cell death
same,concentration at which OCR was inhibited,"[6]; permeabilized MiaPaCa-2, added acutely",10 µM
same,IC50,"[6]; read-out: IC50, complex I oxygen consumption, permeabilized MiaPaCa-2, compound added acutely (FIG. 20C)",2000 nM
same,potency of AMPK activation relative to metformin,[7]; MiaPaCa-2,"~1,000 fold"
same,increase in active AMPK (phosphorylated relative to total protein),"[7]; human MiaPaCa-2, 1 μM, 30 min",1.5-2.5 fold
